Calls of active or inactive are those of the source. No cut-off for these calls is given here.

Here are results for 11 compounds from ChEMBL document CHEMBL5331079, “Novel thiazolidines of potential anti-proliferation properties against esophageal squamous cell carcinoma via ERK pathway” (Eur J Med Chem, 2023).

The subject of data set [1] is KYSE-30. Description: Antiproliferative activity against human KYSE-30 cells assessed as inhibition of cell growth incubated for 72 hrs by MTT assay. The format is functional, cell-based. Conditions: KYSE-30, 72 h. (In general: Formazan colour is commonly taken as a measure of viable cells.)
In a further data set the test system is MCF7. Description: Antiproliferative activity against human MCF7 cells assessed as inhibition of cell growth incubated for 96 hrs by MTT assay. The format is functional, cell-based. The following applies: MCF7, 96 h.
Data set [2] relates to KYSE-150 cell line. Description: Antiproliferative activity against human KYSE-150 cell line assessed as reduction of cell viability at 1.25 to 100 uM incubated for 72 hrs by MTT assay. The class given is functional, cell-based. Conditions: dose 1.25-100 µM.
In data set [3] the test system is KYSE-150 cell line. Put plainly: Induction of apoptosis in human KYSE-150 cell line assessed as chromatin condensation at 10 uM incubated upto 72 hrs by DAPI staining based confocal laser scanner microscopy analysis. The format is functional.
A short description of data set [4]: Antiproliferative activity against human NES-G4T cells assessed as inhibition of cell growth incubated for 72 hrs by MTT assay. The class given is toxicity, cell-based.
In data set [5] the test system is KYSE-30. Put plainly: Induction of apoptosis in human KYSE-30 cells assessed as chromatin condensation at 10 uM incubated upto 72 hrs by DAPI staining based confocal laser scanner microscopy analysis. The class given is functional, cell-based.
Data set [6] concerns NES-G4T. Description: Induction of apoptosis in human NES-G4T cells assessed as effect on ratio of AKT phosphorylation incubated for 4 to 12 hrs by Western blotting analysis. The class given is functional, cell-based. Conditions: time 4-12 hrs.
Data set [7] relates to KYSE-150 cell line. Description: Antiproliferative activity against human KYSE-150 cell line assessed as inhibition of cell growth incubated for 72 hrs by MTT assay. The format is functional, cell-based. The following applies: KYSE-150, 72 h.
Another data set has as its system HET-1A. Description: Antiproliferative activity against human HET-1A cells assessed as reduction of cell viability at 1.25 to 100 uM incubated for 72 hrs by MTT assay. The format is toxicity, cell-based. The following applies: dose 1.25-100 µM.
The subject of data set [8] is KYSE-30. Description: Induction of apoptosis in human KYSE-30 cells assessed as loss of nuclei integrity at 10 uM incubated for 72 hrs by DAPI staining based confocal laser scanner microscopy analysis. The format is functional, cell-based.
The subject of data set [9] is KYSE-150 cell line. Description: Induction of apoptosis in human KYSE-150 cell line assessed as effect on ratio of AKT phosphorylation incubated for 4 to 12 hrs by Western blotting analysis. The format is functional, cell-based. The following applies: time 4-12 hrs.
The test system of data set [10] is KYSE-150 cell line. Description: Induction of apoptosis in human KYSE-150 cell line assessed as downregulation of ERK protein level incubated for 4 to 12 hrs by Western blotting analysis. The class given is functional, cell-based. Conditions: time 4-12 hrs, TDE = time-dependent effect. A general note: In western blotting, separated proteins are transferred to a membrane and probed.

The subject of data set [11] is KYSE-150 cell line. Put plainly: Inhibition of cell growth in human KYSE-150 cell line at 10 uM incubated for 72 hrs by MTT assay relative to control. The format is functional.
Data set [12] concerns KYSE-150 cell line. Put plainly: Induction of apoptosis in human KYSE-150 cell line assessed as nuclear fragmentation at 10 uM incubated upto 72 hrs by DAPI staining based confocal laser scanner microscopy analysis. The format is functional.
For data set [13], the system named is KYSE-150 cell line. Put plainly: Induction of apoptosis in human […] cell line assessed as loss of nuclei integrity at 10 uM incubated for 72 hrs by DAPI staining based confocal laser scanner microscopy analysis. The class given is functional.
For data set [14], the system named is KYSE-30. Description: Induction of apoptosis in human KYSE-30 cells assessed as nuclear fragmentation at 10 uM incubated upto 72 hrs by DAPI staining based confocal laser scanner microscopy analysis. The format is functional, cell-based.
Data set [15] can be described thus: Antiproliferative activity against human HET-1A cells assessed as inhibition of cell growth incubated for 72 hrs by MTT assay. The format is toxicity, cell-based.
Data set [16] has as its system KYSE-150 cell line. Put plainly: Induction of apoptosis in human KYSE-150 cell line assessed as effect on ratio of ERK phosphorylation incubated for 4 to 12 hrs by Western blotting analysis. The format is functional, cell-based. The following applies: time 4-12 hrs.
A short description of data set [17]: Antiproliferative activity against human NES-G4T cells assessed as reduction of cell viability at 1.25 to 100 uM incubated for 72 hrs by MTT assay. The class given is toxicity, cell-based. Conditions: dose 1.25-100 µM.
In data set [18] the test system is NES-G4T. Put plainly: Induction of apoptosis in human NES-G4T cells assessed as effect on ratio of ERK phosphorylation incubated for 4 to 12 hrs by Western blotting analysis. The format is functional, cell-based. Conditions: time 4-12 hrs.
In data set [19] the test system is KYSE-30. Description: Antiproliferative activity against human KYSE-30 cells assessed as reduction of cell viability at 1.25 to 100 uM incubated for 72 hrs by MTT assay. The following applies: dose 1.25-100 µM. The class given is functional, cell-based.

For the compound `COc1ccc(/N=C2/NC(C)(C)/C(=C/c3ccc(Br)cc3)S2)cc1`, in the data set with KYSE-30 [1], the IC50 worked out at 14.2 µM.
Same read-out and setting: the same measure for `CC1(C)N/C(=N/c2ccc(Br)cc2)S/C1=C\c1ccc(Br)cc1`: 13.2 µM; for `CC1(C)N/C(=N/c2ccc([N+](=O)[O-])cc2)S/C1=C\c1ccc(Br)cc1`: 31.5 µM.
For the compound `CNC(C)C#Cc1ccc(OC)cc1` (stereo not given), the IC50 with MCF7 was 0.5 µM.
As to `Cc1ccc(/N=C2/NC(C)(C)/C(=C/c3ccc(Br)cc3)S2)cc1`, the IC50 in the data set with KYSE-30 [1] worked out at 64.3 µM.
With `COc1ccc(/C=C2\S/C(=N\c3ccccc3)N(C)C2C)cc1` (stereo not given), in the data set with MCF7, the IC50 stood at 0.5 µM.
Turning to `CC1(C)N/C(=N/c2ccc(Cl)cc2)S/C1=C\c1ccc(Br)cc1`, in the data set with KYSE-30 [1], the IC50 was 64.2 µM.
For `CC1(C)N/C(=N/c2ccc(F)cc2)S/C1=C\c1ccc(Br)cc1`, the IC50 in the data set on KYSE-30 [1] turned out to be 10.6 µM.
In the case of `COc1ccc(/N=C2/NC(C)(C)/C(=C/c3ccc(Br)cc3)S2)c([N+](=O)[O-])c1`, the Activity result is “Dose-Dependent Effect” in the data set with KYSE-150 cell line [2]; “Toxic” in the data set with HET-1A; “Tde” with KYSE-150 cell line [10]; “Toxic” in data set [17]; “Dose-Dependent Effect” in the data set on KYSE-30 [19]. In addition, the result in the data set on KYSE-150 cell line [3], in the data set with KYSE-30 [5], in the data set with KYSE-30 [8], with KYSE-150 cell line [12], in the data set with KYSE-150 cell line [13] and in the data set on KYSE-30 [14] was Active. The IC50 at 72 h stood at 202 µM in data set [4] and 13 µM in data set [15]. Also, the result with NES-G4T [6], in the data set with KYSE-150 cell line [9], with KYSE-150 cell line [16] and in the data set on NES-G4T [18] was inactive. In addition, the IC50 stood at 10.1 µM with KYSE-150 cell line [7] and 16.8 µM in the data set on KYSE-30 [1]. This compound returned an inhibition at 10 µM in the data set with KYSE-150 cell line [11] of 71%.
For the compound `CC1(C)N/C(=N/c2ccccc2)S/C1=C\c1ccc(Br)cc1`, the IC50 in the data set with KYSE-30 [1] turned out to be 18.6 µM.
On the same count and under the same terms, the same measure for `Cc1ccc(/N=C2/NC(C)(C)/C(=C/c3ccc(Br)cc3)S2)cc1Cl`: 65.4 µM.

By IC50 is commonly meant the concentration that inhibits the measured activity by half. The term inhibition denotes the relative decrease from the control value, in per cent.
